Laboratory results taken from ChEMBL document CHEMBL4422615, “Novel non-xanthine antagonist of the A2B adenosine receptor: From HTS hit to lead structure” (Eur J Med Chem, 2019).
pEC50, pIC50: −log10 of the molar value.

How the values were obtained:
[1] = biological target: T1, Adenosine receptor A2b (Homo sapiens, UniProt P29275); assay: Antagonist activity at recombinant human A2B adenosine receptor expressed in CHO cells after 3 to 4 hrs by luciferase reporter gene assay; type: cell-based
T1 sequence (P29275 whole entry): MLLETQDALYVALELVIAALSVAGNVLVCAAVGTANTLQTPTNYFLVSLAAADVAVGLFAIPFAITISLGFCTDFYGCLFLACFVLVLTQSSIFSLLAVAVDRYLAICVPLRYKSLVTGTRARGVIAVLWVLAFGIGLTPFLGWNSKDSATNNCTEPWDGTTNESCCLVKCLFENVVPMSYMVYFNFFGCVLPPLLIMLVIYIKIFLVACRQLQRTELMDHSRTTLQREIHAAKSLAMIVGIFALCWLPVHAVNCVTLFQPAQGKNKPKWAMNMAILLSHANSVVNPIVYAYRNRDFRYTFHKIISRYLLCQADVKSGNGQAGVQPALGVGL

[2] = biological target: T1, Adenosine receptor A2b; assay: Displacement of [3H]DPCPX from human A2B adenosine receptor expressed in HEK293 cell membranes after 60 mins by radioligand displacement assay
[3] = Blood clearance in mouse by measuring intrinsic clearance in mouse liver microsomes by MS/MS analysis; type: ADME
[4] = biological target: T2, PXR (Homo sapiens, UniProt O75469); assay: Activation of PXR in human HepG2 cells assessed as induction of CYP3A4 expression at 2 x 10^-9 to 50 x 10^-6 mol/L by luciferase reporter gene assay relative to control; type: ADME, cell-based
T2 sequence (O75469 whole entry): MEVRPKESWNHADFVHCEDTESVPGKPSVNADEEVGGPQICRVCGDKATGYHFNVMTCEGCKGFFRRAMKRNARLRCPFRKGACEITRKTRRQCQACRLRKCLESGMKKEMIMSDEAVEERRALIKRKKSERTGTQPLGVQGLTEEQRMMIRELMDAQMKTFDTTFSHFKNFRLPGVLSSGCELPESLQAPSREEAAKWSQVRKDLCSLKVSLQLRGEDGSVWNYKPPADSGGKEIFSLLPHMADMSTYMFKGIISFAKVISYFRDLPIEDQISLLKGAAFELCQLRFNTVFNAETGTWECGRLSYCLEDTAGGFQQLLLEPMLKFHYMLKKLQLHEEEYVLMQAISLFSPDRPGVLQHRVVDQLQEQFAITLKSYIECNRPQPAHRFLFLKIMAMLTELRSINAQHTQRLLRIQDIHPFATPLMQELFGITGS

[5] = biological target: T3, Cytochrome P450 3A4 (Homo sapiens, UniProt P08684); assay: Time dependent inhibition of human liver microsomes CYP3A4 using midazolam as substrate in presence of NADPH by LC-MS/MS analysis; type: ADME
[6] = Intrinsic clearance in rat hepatocytes by MS/MS analysis; type: ADME, cell-based, Hepatocyte
[7] = Apparent permeability from apical side to basolateral side in human Caco2 cells; type: ADME, cell-based; conditions: Caco-2
[8] = biological target: T4, Cytochrome P450 2C8 (Homo sapiens, UniProt P10632); assay: Inhibition of CYP2C8 in human liver microsomes using amodiaquine as substrate after 15 mins in presence of NADPH by LC-MS/MS analysis; type: ADME
T4 sequence (P10632 whole entry): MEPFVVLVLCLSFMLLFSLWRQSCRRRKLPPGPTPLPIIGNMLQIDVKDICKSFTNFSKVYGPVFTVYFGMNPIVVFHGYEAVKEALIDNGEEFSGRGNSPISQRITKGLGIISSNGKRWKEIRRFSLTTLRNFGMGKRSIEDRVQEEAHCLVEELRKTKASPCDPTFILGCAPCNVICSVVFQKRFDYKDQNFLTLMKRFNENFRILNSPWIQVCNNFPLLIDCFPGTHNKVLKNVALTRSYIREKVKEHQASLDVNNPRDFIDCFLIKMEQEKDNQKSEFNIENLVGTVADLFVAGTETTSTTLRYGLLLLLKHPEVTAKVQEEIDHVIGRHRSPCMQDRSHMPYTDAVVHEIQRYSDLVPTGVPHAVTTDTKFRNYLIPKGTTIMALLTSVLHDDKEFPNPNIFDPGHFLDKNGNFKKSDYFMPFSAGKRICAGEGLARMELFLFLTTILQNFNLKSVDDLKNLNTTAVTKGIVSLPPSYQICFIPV

[9] = biological target: T5, Nuclear receptor subfamily 1 group I member 2 (Homo sapiens, UniProt O75469); assay: Activation of PXR in human HepG2 cells assessed as induction of CYP3A4 expression by luciferase reporter gene assay; type: ADME, cell-based
T5 sequence (O75469 whole entry): T2 sequence (O75469 whole entry)

[10] = biological target: T3, Cytochrome P450 3A4; assay: Inhibition of CYP3A4 in human liver microsomes using midazolam as substrate preincubated for 30 mins followed by substrate addition measured after 10 mins in presence of NADPH by LC-MS/MS analysis; type: ADME
[11] = biological target: Cytochrome P450 2C9 (Homo sapiens, UniProt P11712); assay: Inhibition of CYP2C9 in human liver microsomes using diclofenac as substrate after 15 mins in presence of NADPH by LC-MS/MS analysis; type: ADME
[12] = Blood clearance in rat by measuring Intrinsic clearance in rat hepatocytes by MS/MS analysis; type: ADME, cell-based
[13] = biological target: T6, Cytochrome P450 1A2 (Homo sapiens, UniProt P05177); assay: Inhibition of CYP1A2 in human liver microsomes using phenacetin as substrate after 15 mins in presence of NADPH by LC-MS/MS analysis; type: ADME
T6 sequence (P05177 whole entry): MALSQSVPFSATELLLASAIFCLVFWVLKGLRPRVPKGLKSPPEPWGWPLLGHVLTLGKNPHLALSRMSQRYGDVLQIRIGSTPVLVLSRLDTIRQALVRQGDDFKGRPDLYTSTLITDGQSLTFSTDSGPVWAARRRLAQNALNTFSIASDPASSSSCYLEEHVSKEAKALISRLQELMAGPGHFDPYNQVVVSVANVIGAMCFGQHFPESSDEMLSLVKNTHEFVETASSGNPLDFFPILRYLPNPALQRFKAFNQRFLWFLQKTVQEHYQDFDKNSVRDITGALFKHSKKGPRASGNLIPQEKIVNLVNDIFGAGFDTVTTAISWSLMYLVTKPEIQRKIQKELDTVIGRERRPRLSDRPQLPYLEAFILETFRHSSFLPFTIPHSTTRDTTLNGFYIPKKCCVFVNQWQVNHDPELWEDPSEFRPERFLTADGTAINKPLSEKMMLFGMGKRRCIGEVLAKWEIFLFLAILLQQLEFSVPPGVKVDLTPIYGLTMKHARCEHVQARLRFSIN

[14] = biological target: Cytochrome P450 2D6 (Homo sapiens, UniProt P10635); assay: Inhibition of CYP2D6 in human liver microsomes using dextromethorphan as substrate after 15 mins in presence of NADPH by LC-MS/MS analysis; type: ADME
[15] = Efflux ratio in human Caco2 cells; type: ADME, cell-based; conditions: Caco-2
[16] = Plasma clearance in mouse; type: ADME, organism-based

T3 sequence (P08684 whole entry): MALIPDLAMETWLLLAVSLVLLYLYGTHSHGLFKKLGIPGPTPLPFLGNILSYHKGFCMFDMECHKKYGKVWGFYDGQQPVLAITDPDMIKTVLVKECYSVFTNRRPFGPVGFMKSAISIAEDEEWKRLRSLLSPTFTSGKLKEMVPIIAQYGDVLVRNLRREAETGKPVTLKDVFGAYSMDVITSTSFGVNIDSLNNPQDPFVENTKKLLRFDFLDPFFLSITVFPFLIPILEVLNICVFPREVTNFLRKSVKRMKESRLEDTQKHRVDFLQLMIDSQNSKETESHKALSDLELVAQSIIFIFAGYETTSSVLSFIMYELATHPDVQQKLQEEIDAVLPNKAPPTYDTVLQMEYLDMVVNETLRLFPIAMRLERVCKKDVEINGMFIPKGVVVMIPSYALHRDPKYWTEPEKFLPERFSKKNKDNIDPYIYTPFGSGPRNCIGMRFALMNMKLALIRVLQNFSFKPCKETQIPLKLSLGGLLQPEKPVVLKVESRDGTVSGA
Chain of Cytochrome P450 2D6 (P10635 whole entry): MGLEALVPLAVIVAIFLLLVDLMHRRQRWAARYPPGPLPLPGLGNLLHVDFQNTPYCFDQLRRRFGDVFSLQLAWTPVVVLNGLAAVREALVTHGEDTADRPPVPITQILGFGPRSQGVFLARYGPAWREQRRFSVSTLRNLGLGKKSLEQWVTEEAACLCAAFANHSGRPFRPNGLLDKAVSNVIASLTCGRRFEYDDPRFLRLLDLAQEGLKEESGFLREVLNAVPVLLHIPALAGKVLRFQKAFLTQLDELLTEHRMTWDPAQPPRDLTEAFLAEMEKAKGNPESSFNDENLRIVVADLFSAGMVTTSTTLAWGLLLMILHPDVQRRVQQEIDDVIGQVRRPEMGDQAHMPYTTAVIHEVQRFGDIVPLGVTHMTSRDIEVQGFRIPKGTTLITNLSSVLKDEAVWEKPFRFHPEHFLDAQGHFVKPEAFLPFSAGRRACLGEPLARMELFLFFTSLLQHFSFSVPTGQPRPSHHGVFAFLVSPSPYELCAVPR
Chain of Cytochrome P450 2C9 (P11712 whole entry): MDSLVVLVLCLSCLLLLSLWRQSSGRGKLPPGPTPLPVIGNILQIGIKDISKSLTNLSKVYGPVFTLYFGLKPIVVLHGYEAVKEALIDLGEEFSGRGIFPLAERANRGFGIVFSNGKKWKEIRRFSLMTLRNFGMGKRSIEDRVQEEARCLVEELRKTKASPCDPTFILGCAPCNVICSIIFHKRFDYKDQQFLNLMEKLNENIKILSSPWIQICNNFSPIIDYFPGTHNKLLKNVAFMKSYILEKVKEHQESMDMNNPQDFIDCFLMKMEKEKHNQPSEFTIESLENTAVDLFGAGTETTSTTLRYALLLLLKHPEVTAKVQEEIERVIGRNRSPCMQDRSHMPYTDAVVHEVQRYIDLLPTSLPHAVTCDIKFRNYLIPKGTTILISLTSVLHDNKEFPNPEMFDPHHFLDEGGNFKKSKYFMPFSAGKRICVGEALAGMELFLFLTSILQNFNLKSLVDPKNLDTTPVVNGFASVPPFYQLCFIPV

Row | pEC50 [1] | pIC50 [2] | CLhep predicted [3] | Emax [4] | TDI [5] | CLhep predicted [6] | Papp A→B [7] | pIC50 [8] | MEC [9] | pIC50 [10] | pIC50 [11] | CLhep predicted [12] | pIC50 [13] | pIC50 [14] | efflux ratio [15] | clearance [16] | SMILES
1 | < 5.00 | 6.28 |  |  |  |  |  |  |  |  |  |  |  |  |  |  | Cc1csc2c1c(=O)n(CCc1ccccc1)c(=O)n2CC1CCCO1 (racemic)
2 |  | 6.74 | 81.7 mL/min/kg | 85% | Not Active | 66.7 mL/min/kg | 21 ×10⁻⁶ cm/s | 5.00 | 2 ×10⁻⁶ mol/L | 4.80 | 5.08 | 66.7 mL/min/kg | 5.19 | < 4.70 | 0.69 | 43.3 mL/min/kg | Cc1csc2c1c(=O)n(CCc1ccccc1)c(=O)n2CC1CCCO1 (stereo in doubt; 7)
